Source: patent US9469804B2, “Foaming composition with wettability modifying and corrosion inhibitory properties for high temperature and ultra-high salinity” (INSTITUTO MEXICANO DEL PETROLEO, priority 2012, dated 2016)

Key:
[1] = Phase stability evaluation in brines with ultra-high salinity (turbidity); type: physicochemical; conditions: 0.2% by weight, room temperature, pass limit 30 NTU
Procedure: A phase stability study was carried out for the supramolecular complexes object of the present invention, described in Examples 19, 20 and 21 and whose basic structural formula is indicated in (36).
All the products were assessed at concentration of 0.2% by weight, dissolved in different waters with high salinity and concentrations of divalent ions, through the measurement of turbidity in NTU (Nephelometric Turbidity Units). This value indicates how turbid or clear a solution/chemical product is and the higher the value, the more turbid the solution is.
The measurement is based on applying the nephelometric technique by using a photometer. The standard method is based on the comparison of the amount of light dispersed by the colloidal particles present in a sample of water with the intensity of the light emerging across the same sample.
It is worth mentioning that in order to pass this test, a value 30 NTU should not be exceeded.

[2] = Foaming test at atmospheric pressure (foam stability); type: physicochemical; conditions: brine 1, 70°C, 0.2% by weight, nitrogen

- TURBIDITY ([1]; BRINE 1 (salinity as NaCl 32803.9, hardness 6420 mg/L)): 1.09 NTU
- TURBIDITY ([1]; BRINE 2 (salinity as NaCl 152974.9, hardness 35200 mg/L)): 1.68 NTU
- TURBIDITY ([1]; BRINE 3 (salinity as NaCl 253859.1, hardness 87700 mg/L)): 3.9 NTU
- time in which the minimum foam stability of 30% is reached [2]: 60 min
Substance: coco-amido-propyl-hydroxysultaine [Coco amido-propyl hydroxysultaine]
